This is an account of results in US20230339900A1, “CASEIN KINASE 1 DELTA MODULATORS” (Janssen Pharmaceutica NV, priority 2020, published 2023).

Test [1] deals with human recombinant GST cleaved CSNK1D (Homo sapiens (Human), UniProt P48730). The test can be described thus: Purified enzyme assay (ADP-Glo Kinase Assay). It counts as biochemical. Conditions: 2 nM CSNK1D, peptide substrate 150 μM, ATP 20 μM, 45 minutes room temperature. The method, then:
In this assay, CSNK1D phosphorylates a substrate peptide PLSRTL-pS-VASLPGL in the presence of ATP. […] This assay monitors CSNK1D kinase activity by measuring the amount of ADP produced in the assay. A substrate mix is prepared by diluting peptide substrate (final concentration 150 μM) with ATP (final concentration 20 μM) in assay buffer (50 mM Tris/HCl pH 7.4+10 mM MgCl2+1 mM DTT+0.1% BSA). The substrate mix is added to each well of a low volume, 384-well, white opaque plate. Test compounds were diluted in HBSS and added in a dose-response to the plate. To start the reaction, 2 nM of constitutively active human recombinant GST cleaved CSNK1D (University of Dundee, clone DU 19064, stored at 0.28 mg/mL in 50 mM Tris/HCl pH 7.5, 150 mM NaCl, 270 mM Sucrose, 0.1 mM EGTA, 0.1% 2-mercaptoethanol, 0.02% Brij-35.1 mM benzamidine, 0.2 mM PMSF) was added to each well and the plate centrifuged for 5 minutes at 1500 rpm. The total volume of each reaction is 5 ul (2 μL of substrate mix, 1 μL of diluted compounds, and 2 μL of human recombinant CSNK1D). The plates are incubated for 45 minutes at room temperature.
ADP was quantified using the ADP-Glo™ Kinase Assay. ADP-Glo Reagent (5 μL) was added to each well. After a 1 hour incubation at room temperature, Kinase Detection Reagent (10 μL) was added to each well and incubated for 30 minutes. Luminescence was measured on the Perkin Elmer Wallac EnVision 2104 Multi-label Reader. The raw data from the Envision is used to calculate percent activity.

Test [2] has as its target human CSNK1D tagged with nanoluciferase (Homo sapiens (Human), UniProt P48730). The test can be described thus: Whole Cell nBRET CSNK1D Binding Assay. Conditions: living CHO cells stably expressing human CSNK1D-nanoluciferase; NanoBret tracer 130 nM; 2 hours 37° C.; read-out: CSNK1D BRET IC50. The method, then: This cellular binding assay uses a bioluminescence resonance energy transfer to measure human CSNK1D binding activity in living Chinese Hamster Ovary (CHO) cells that are stably expressing human CSNK1D tagged with nanoluciferase. The cells were grown to confluency in growth media (DMEM:F12, 50 u/mLPen/Strep, […] glutamine, and 0.6 mg/mL G418) in 10 cm^2 dishes. Cells were seeded onto white, opaque 384-well plates (Corning, cat #3704) at a density of 8,000 cells/well in serum-free OptiMEM and left to incubated overnight at 37° C., […]. The next day, test compounds were added in a dose response to the plate followed by a NanoBret tracer (130 nM). The plate is mixed on an orbital shaker for 30 seconds, then placed in a 37° C. incubator for 2 hours. NanoBret Nano-Glo Substrate solution (20 μL) is added to all wells and incubated for 3 minutes at room temperature. Donor (450 nm) and acceptor (630 nm) emissions are then measured within 10 minutes using a ClarioStar plate reader. The data is used to calculate millibret units, defined as (E630/E450)*1000. Bret emissions are then graphed against the log of compound concentrations and these graphs are used to determine the IC50 of each compound.

Molecules are shown by their SMILES. pIC50: −log10 of the molar value. Bounds are passed on as bounds.

Chain of human recombinant GST cleaved CSNK1D (P48730 whole entry): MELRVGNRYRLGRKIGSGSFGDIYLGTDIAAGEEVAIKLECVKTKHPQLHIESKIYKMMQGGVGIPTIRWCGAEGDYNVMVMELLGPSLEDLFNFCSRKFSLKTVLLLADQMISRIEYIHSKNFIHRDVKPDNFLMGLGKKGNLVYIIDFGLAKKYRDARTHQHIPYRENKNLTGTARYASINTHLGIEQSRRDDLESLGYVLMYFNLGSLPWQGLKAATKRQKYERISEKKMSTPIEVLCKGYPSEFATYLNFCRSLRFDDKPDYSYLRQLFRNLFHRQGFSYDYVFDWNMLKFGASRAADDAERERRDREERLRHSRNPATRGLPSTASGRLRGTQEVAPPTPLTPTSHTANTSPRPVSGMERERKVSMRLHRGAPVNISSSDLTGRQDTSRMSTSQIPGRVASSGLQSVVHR
Chain of human CSNK1D tagged with nanoluciferase (P48730 whole entry): as above

In the case of `COCCn1cc(-c2cc(C)nc3[nH]ncc23)c(-c2ccc(F)cn2)n1` [Example 64, 4-(3-(5-Fluoropyridin-2-yl)-1-(2-methoxyethyl)-1H-pyrazol-4-yl)-6-methyl-1H-pyrazolo[3,4-b]pyridine], the AC50 in test [1] was 19 nM. Further, the pIC50 in test [2] was 6.41.
As to `Cc1cc(-c2cn(C3CCC3)nc2-c2ccc(F)cn2)c2cn[nH]c2n1` [Example 71, 4-(1-Cyclobutyl-3-(5-fluoropyridin-2-yl)-1H-pyrazol-4-yl)-6-methyl-1H-pyrazolo[3,4-b]pyridine], in test [1], the AC50 was determined as 3 nM. In addition, the pIC50 in test [2] was 6.95.
The like results for `Cc1c(-c2ccnc3[nH]ccc23)c(-c2ccc(F)cn2)nn1C` [Example 51, 4-(3-(5-Fluoropyridin-2-yl)-1,5-dimethyl-1H-pyrazol-4-yl)-1H-pyrrolo[2,3-b]pyridine] were, in that order, 5 nM and 7.55.
With `COc1cccc2c(-c3cn(C)nc3-c3ccc(F)cn3)ccnc12` [Example 148, 4-[3-(5-Fluoro-2-pyridyl)-1-methyl-pyrazol-4-yl]-8-methoxy-quinoline], the AC50 in test [1] was determined as 7090 nM. Further, in test [2], the negative logarithm of the IC50 (pIC50) is under 5.00.
As to `Cc1ccc(-c2nn(C)cc2-c2ccnc3[nH]ncc23)nc1` [Example 32, 4-(1-Methyl-3-(5-methylpyridin-2-yl)-1H-pyrazol-4-yl)-1H-pyrazolo[3,4-b]pyridine], the AC50 in test [1] was determined as 128 nM. In addition, the pIC50 in test [2] is 5.05.
`Cn1cc(-c2ccnc(NC(=O)C3CC3)c2)c(-c2ccc(F)cn2)n1` [Example 116, N-(4-(3-(5-Fluoropyridin-2-yl)-1-methyl-1H-pyrazol-4-yl)pyridin-2-yl)cyclopropanecarboxamide]: the AC50 in test [1] is 3 nM. Moreover, the pIC50 in test [2] was 7.12.
Turning to `Cc1cnc(-c2nn(C)cc2-c2ccnc3[nH]ccc23)cn1` [Example 47, 4-[1-Methyl-3-(5-methylpyrazin-2-yl)pyrazol-4-yl]-1H-pyrrolo[2,3-b]pyridine], in test [1], the AC50 turned out to be 346 nM. Moreover, in test [2], the pIC50 was under 5.00.
On the same counts, the results for `Cc1cc(-c2cn(C(C)C)nc2-c2ccc(F)cn2)c2cn[nH]c2n1` [Example 60, 4-(3-(5-Fluoropyridin-2-yl)-1-isopropyl-1H-pyrazol-4-yl)-6-methyl-1H-pyrazolo[3,4-b]pyridine] are 11 nM and 6.43.
Take `Cn1cc(-c2ccnc3[nH]cc(C#N)c23)c(-c2ccc(F)cn2)n1` [Example 88, 4-[3-(5-Fluoro-2-pyridyl)-1-methyl-pyrazol-4-yl]-1H-pyrrolo[2,3-b]pyridine-3-carbonitrile]: in test [1], the AC50 was determined as 16 nM. For the same compound, in test [2], the negative-log IC50 (pIC50) is 6.84.
On the same counts, the results for `Cn1cc(-c2ccnc3[nH]ncc23)c(-c2ccc(F)cn2)n1` [Example 98, 4-(3-(5-Fluoropyridin-2-yl)-1-methyl-1H-pyrazol-4-yl)-1H-pyrazolo[3,4-b]pyridine] are 76 nM and 5.63.
Turning to `CCOc1ccc2nccc(-c3cn(C)nc3-c3ccc(F)cn3)c2n1` [Example 128, 2-Ethoxy-8-[3-(5-fluoro-2-pyridyl)-1-methyl-pyrazol-4-yl]-1,5-naphthyridine], in test [1], the AC50 was 11 nM. In test [2], the pIC50 is 6.99.
In the case of `CCn1cc(-c2ccnc3[nH]ccc23)c(-c2ccc(F)cn2)n1` [Example 55, 4-[1-Ethyl-3-(5-fluoro-2-pyridyl)pyrazol-4-yl]-1H-pyrrolo[2,3-b]pyridine], the AC50 in test [1] worked out at 7 nM. Besides, the pIC50 in test [2] was 7.03.
On the same counts, the results for `COc1cc(OC)c2c(-c3cn(C)nc3-c3ccc(F)cn3)ccnc2c1` [Example 151, 4-[3-(5-Fluoro-2-pyridyl)-1-methyl-pyrazol-4-yl]-5,7-dimethoxy-quinoline] are 38 nM and 6.34.
The like results for `Cn1cc(-c2ccnc3cc(F)ccc23)c(-c2ccc(F)cn2)n1` [Example 106, 7-Fluoro-4-[3-(5-fluoro-2-pyridyl)-1-methyl-pyrazol-4-yl]quinoline] were, in that order, 39 nM and 6.25.
